Results: ChEMBL document CHEMBL3526001, “Attenuation of intestinal absorption by major efflux transporters: quantitative tools and strategies using a Caco-2 model” (Drug Metab Dispos, 2011)

Legend:
in vitro [1] = settings: human, Caco-2
in vitro [2] = settings: human, Caco-2; remark: listed apart in the source
clinical = settings: human, in vivo
Description: Fraction absorbed in human

in vitro [3] = settings: human, Caco-2; remark: listed apart in the source
P-gp = assay: in vitro; settings: human
[4] = human, caco-2, 2 h, 10 µM
[5] = human, caco-2, 2 h, 10 µM; remark: listed apart in the source

| SMILES | Papp A→B at 2 h, 10 µM (in vitro [1]) | Papp B→A at 2 h, 10 µM (in vitro [2]) | Fa (clinical) | efflux ratio at 2 h, 10 µM (in vitro [3]) | efflux ratio at 2 h, 10 µM (P-gp; Caco-2) | Papp [4] | Papp [5] | efflux ratio at 2 h, 10 µM (P-gp; Caco-2, with LY335979 1 uM) |
| --- | --- | --- | --- | --- | --- | --- | --- | --- |
| CCCCC(=O)N(Cc1ccc(-c2ccccc2-c2nnn[nH]2)cc1)[C@H](C(=O)O)C(C)C | 0.4 ×10⁻⁶ cm/s | 1.7 ×10⁻⁶ cm/s | 25% | 4.1 | 2.9 |  |  |  |
| CC(C)(C)NC(=O)[C@@H]1C[C@@H]2CCCC[C@@H]2CN1C[C@@H](O)[C@H](Cc1ccccc1)NC(=O)[C@H](CC(N)=O)NC(=O)c1ccc2ccccc2n1 |  |  | 4% |  |  | 0.4 ×10⁻⁶ cm/s | 5.6 ×10⁻⁶ cm/s |  |
| CC(C)CN(C[C@@H](O)[C@H](Cc1ccccc1)NC(=O)O[C@H]1CCOC1)S(=O)(=O)c1ccc(N)cc1 | 8 ×10⁻⁶ cm/s |  | 70% |  |  |  |  |  |
| CNS(=O)(=O)Cc1ccc2[nH]cc(CCN(C)C)c2c1 | 1.5 ×10⁻⁶ cm/s | 2.2 ×10⁻⁶ cm/s |  | 1.4 |  |  |  | 0.5 |
| CC1=C(CC(=O)O)c2cc(F)ccc2/C1=C\c1ccc([S+](C)[O-])cc1 (configuration not stated) |  |  | 90% | 3.6 |  | 2 ×10⁻⁶ cm/s | 13.5 ×10⁻⁶ cm/s | 2.6 |
| O=C(O)CN(CCN(CC(=O)O)Cc1ccccc1O)Cc1ccccc1O | 0.02 ×10⁻⁶ cm/s | 0.04 ×10⁻⁶ cm/s |  | 2.1 |  |  |  | 2 |
| CC(C)(C)NC(=O)[C@@H]1CN(Cc2cccnc2)CCN1C[C@@H](O)C[C@@H](Cc1ccccc1)C(=O)N[C@H]1c2ccccc2C[C@H]1O.O | 2.4 ×10⁻⁶ cm/s | 22.8 ×10⁻⁶ cm/s | 63% | 9.7 | 0.8 |  |  |  |
| Cc1c(O)cccc1C(=O)N[C@@H](CSc1ccccc1)[C@H](O)CN1C[C@H]2CCCC[C@H]2C[C@H]1C(=O)NC(C)(C)C | 0.7 ×10⁻⁶ cm/s | 1.7 ×10⁻⁶ cm/s | 3% | 2.5 |  |  |  | 0.7 |
| CCCC(=O)Nc1ccc(OCC(O)CNC(C)C)c(C(C)=O)c1 (configuration not stated) [ACEBUTOLOL] | 1.1 ×10⁻⁶ cm/s | 4.1 ×10⁻⁶ cm/s | 70% | 3.6 | 1 |  |  |  |
| COCc1c(C(C)C)nc(C(C)C)c(/C=C/[C@@H](O)C[C@@H](O)CC(=O)O)c1-c1ccc(F)cc1 [CERIVASTATIN] |  |  | 98% |  |  |  |  |  |
| O=C(O)COCCN1CCN(C(c2ccccc2)c2ccc(Cl)cc2)CC1 (configuration not stated) [CETIRIZINE] |  |  | 66% |  |  |  |  |  |
| CCN(CC)CCCC(C)Nc1ccnc2cc(Cl)ccc12 (configuration not stated) [CHLOROQUINE] |  |  | 89% |  |  |  |  |  |
| CC[C@H]1OC(=O)[C@H](C)[C@@H](O[C@H]2C[C@@](C)(OC)[C@@H](O)[C@H](C)O2)[C@H](C)[C@@H](O[C@@H]2O[C@H](C)C[C@H](N(C)C)[C@H]2O)[C@](C)(OC)C[C@@H](C)C(=O)[C@H](C)[C@@H](O)[C@]1(C)O [CLARITHROMYCIN] | 3.5 ×10⁻⁶ cm/s | 18 ×10⁻⁶ cm/s | 50% | 5.1 | 0.8 |  |  |  |
| OCCN(CCO)c1nc(N2CCCCC2)c2nc(N(CCO)CCO)nc(N3CCCCC3)c2n1 [DIPYRIDAMOLE] |  |  | 66% |  |  |  |  |  |
| OC(Cn1cncn1)(Cn1cncn1)c1ccc(F)cc1F [FLUCONAZOLE] | 11.6 ×10⁻⁶ cm/s | 6.7 ×10⁻⁶ cm/s |  | 0.6 | 0.1 |  |  |  |
| CNCCC(Oc1ccc(C(F)(F)F)cc1)c1ccccc1 (configuration not stated) [FLUOXETINE] |  |  | 70% |  |  |  |  |  |
| O=C(CCCN1CCC(O)(c2ccc(Cl)cc2)CC1)c1ccc(F)cc1 [HALOPERIDOL] | 4.1 ×10⁻⁶ cm/s | 1.8 ×10⁻⁶ cm/s | 60% | 0.4 |  |  |  | 0.4 |
| Cc1ccc(NC(=O)c2ccc(CN3CCN(C)CC3)cc2)cc1Nc1nccc(-c2cccnc2)n1 [IMATINIB] |  |  | 67% |  |  |  |  |  |
| Nc1cc(-c2ccncc2)c[nH]c1=O [INAMRINONE] |  |  |  | 1.4 |  | 7.5 ×10⁻⁶ cm/s | 16.6 ×10⁻⁶ cm/s | 3.3 |
| CCc1c2c(nc3ccc(OC(=O)N4CCC(N5CCCCC5)CC4)cc13)-c1cc3c(c(=O)n1C2)COC(=O)[C@]3(O)CC [IRINOTECAN] | 1.4 ×10⁻⁶ cm/s | 5.1 ×10⁻⁶ cm/s |  | 3.7 |  |  |  | 2.7 |

| SMILES | Papp A→B at 2 h, 10 µM (in vitro [1]) | Papp B→A at 2 h, 10 µM (in vitro [2]) | Fa (clinical) | efflux ratio at 2 h, 10 µM (in vitro [3]) | efflux ratio at 2 h, 10 µM (P-gp; Caco-2) | Papp [4] | Papp [5] | efflux ratio at 2 h, 10 µM (P-gp; Caco-2, with LY335979 1 uM) |
| --- | --- | --- | --- | --- | --- | --- | --- | --- |
| CC(=O)N1CCN(c2ccc(OCC3COC(Cn4ccnc4)(c4ccc(Cl)cc4Cl)O3)cc2)CC1 (configuration not stated) [KETOCONAZOLE] | 18 ×10⁻⁶ cm/s | 5.1 ×10⁻⁶ cm/s | 90% |  |  |  |  |  |
| CN(C)C(=O)C(CCN1CCC(O)(c2ccc(Cl)cc2)CC1)(c1ccccc1)c1ccccc1 [LOPERAMIDE] | 5.8 ×10⁻⁶ cm/s | 7.6 ×10⁻⁶ cm/s |  |  |  |  |  |  |
| C[C@H]1C[C@@H]2[C@H]([C@@H](O)C[C@@]3(C)[C@H]2CC[C@]3(O)C(=O)CO)[C@@]2(C)C=CC(=O)C=C12 [METHYLPREDNISOLONE] | 8.5 ×10⁻⁶ cm/s | 24.6 ×10⁻⁶ cm/s |  | 2.9 |  |  |  | 0.8 |
| O=C1c2c(O)ccc(O)c2C(=O)c2c(NCCNCCO)ccc(NCCNCCO)c21 [MITOXANTRONE] | 26.3 ×10⁻⁶ cm/s | 12.5 ×10⁻⁶ cm/s | 85% | 0.5 | 0.6 |  |  |  |
| COC(=O)C1=C(C)NC(C)=C(C(=O)OCCN(C)Cc2ccccc2)C1c1cccc([N+](=O)[O-])c1 (configuration not stated) [NICARDIPINE] | 5 ×10⁻⁶ cm/s | 2.6 ×10⁻⁶ cm/s | 100% | 0.5 | 0.5 |  |  |  |
| O=C1CN(/N=C/c2ccc([N+](=O)[O-])o2)C(=O)N1 [NITROFURANTOIN] | 1.1 ×10⁻⁶ cm/s | 11.1 ×10⁻⁶ cm/s | 100% | 10.4 |  |  |  |  |
| CCn1cc(C(=O)O)c(=O)c2cc(F)c(N3CCNCC3)cc21 [NORFLOXACIN] | 1.9 ×10⁻⁶ cm/s | 3.3 ×10⁻⁶ cm/s | 40% | 1.7 | 1.7 |  |  |  |
| O=C(O)c1cc(/N=N/c2ccc(O)c(C(=O)O)c2)ccc1O [OLSALAZINE] | 0.9 ×10⁻⁶ cm/s | 3.1 ×10⁻⁶ cm/s |  | 3.7 |  |  |  | 1.9 |
| CC(=O)O[C@H]1C(=O)[C@@]2(C)[C@H]([C@H](OC(=O)c3ccccc3)[C@]3(O)C[C@H](OC(=O)[C@H](O)[C@@H](NC(=O)c4ccccc4)c4ccccc4)C(C)=C1C3(C)C)[C@]1(OC(C)=O)CO[C@@H]1C[C@@H]2O [PACLITAXEL] |  |  | 6% |  |  |  |  |  |
| COc1cc2nc(N3CCN(C(=O)c4ccco4)CC3)nc(N)c2cc1OC [PRAZOSIN] | 6.2 ×10⁻⁶ cm/s | 11.1 ×10⁻⁶ cm/s | 100% | 1.8 |  |  |  |  |
| COC(=O)[C@H]1[C@H]2C[C@@H]3c4[nH]c5cc(OC)ccc5c4CCN3C[C@H]2C[C@@H](OC(=O)c2cc(OC)c(OC)c(OC)c2)[C@@H]1OC [RESERPINE] | 3.6 ×10⁻⁶ cm/s | 2.3 ×10⁻⁶ cm/s | 50% | 0.6 | 0.7 |  |  |  |
| CC(C)c1nc(CN(C)C(=O)N[C@H](C(=O)N[C@@H](Cc2ccccc2)C[C@H](O)[C@H](Cc2ccccc2)NC(=O)OCc2cncs2)C(C)C)cs1 [RITONAVIR] | 2.1 ×10⁻⁶ cm/s | 9.2 ×10⁻⁶ cm/s | 66% |  |  |  |  |  |
| CC(C)c1nc(N(C)S(C)(=O)=O)nc(-c2ccc(F)cc2)c1/C=C/[C@@H](O)C[C@@H](O)CC(=O)O [ROSUVASTATIN] | 0.5 ×10⁻⁶ cm/s | 7.5 ×10⁻⁶ cm/s | 20% | 15.9 |  |  |  |  |
| C=CC[C@@H]1/C=C(\C)C[C@H](C)C[C@H](OC)[C@H]2O[C@@](O)(C(=O)C(=O)N3CCCC[C@H]3C(=O)O[C@H](/C(C)=C/[C@@H]3CC[C@@H](O)[C@H](OC)C3)[C@H](C)[C@@H](O)CC1=O)[C@H](C)C[C@@H]2OC [TACROLIMUS ANHYDROUS] | 1 ×10⁻⁶ cm/s | 3.6 ×10⁻⁶ cm/s | 25% | 3.5 |  |  |  | 0.7 |
| COc1cc([C@@H]2c3cc4c(cc3[C@@H](O[C@@H]3O[C@@H]5CO[C@@H](c6cccs6)O[C@H]5[C@H](O)[C@H]3O)[C@H]3COC(=O)[C@H]23)OCO4)cc(OC)c1O [TENIPOSIDE] | 0.9 ×10⁻⁶ cm/s | 8.8 ×10⁻⁶ cm/s | 0% | 9.8 |  |  |  | 2.1 |
| CN1CCN(CCCN2c3ccccc3Sc3ccc(C(F)(F)F)cc32)CC1 [TRIFLUOPERAZINE] | 0.5 ×10⁻⁶ cm/s | 1 ×10⁻⁶ cm/s | 16% | 1.9 | 0.9 |  |  |  |
| COc1cc(Cc2cnc(N)nc2N)cc(OC)c1OC [TRIMETHOPRIM] | 15.9 ×10⁻⁶ cm/s | 11.2 ×10⁻⁶ cm/s |  | 0.7 | 0.4 |  |  |  |
| CC[C@]1(O)C[C@H]2CN(CCc3c([nH]c4ccccc34)[C@@](C(=O)OC)(c3cc4c(cc3OC)N(C=O)[C@H]3[C@@](O)(C(=O)OC)[C@H](OC(C)=O)[C@]5(CC)C=CCN6CC[C@]43[C@@H]65)C2)C1 [VINCRISTINE] |  |  | < 10% |  |  | 0.4 ×10⁻⁶ cm/s | 3.5 ×10⁻⁶ cm/s | 8.6 |
| CCC1=C[C@@H]2CN(C1)Cc1c([nH]c3ccccc13)[C@@](C(=O)OC)(c1cc3c(cc1OC)N(C)[C@H]1[C@@](O)(C(=O)OC)[C@H](OC(C)=O)[C@]4(CC)C=CCN5CC[C@]31[C@@H]54)C2 [VINORELBINE] | 1.4 ×10⁻⁶ cm/s | 8.5 ×10⁻⁶ cm/s | 45% | 5.9 |  |  |  | 1 |
| Cc1cn([C@H]2C[C@H](N=[N+]=[N-])[C@@H](CO)O2)c(=O)[nH]c1=O [ZIDOVUDINE] | 6.7 ×10⁻⁶ cm/s | 9.6 ×10⁻⁶ cm/s | 90% | 1.4 |  |  |  |  |
